For three molecules, Kd results are on record in ChEMBL document CHEMBL5344460, “Advancements in Predictive Medicine: NLRP3 Inflammasome Inhibitors and AI-Driven Predictive Health Analytics” (ACS Med Chem Lett, 2024).

The target of the test is NACHT, LRR and PYD domains-containing protein 3 (Homo sapiens, UniProt Q96P20). The test can be described thus: Binding affinity to human recombinant NLRP3 inflammasome.
Sequence of NACHT, LRR and PYD domains-containing protein 3 (Q96P20 whole entry, the tested form may be a part): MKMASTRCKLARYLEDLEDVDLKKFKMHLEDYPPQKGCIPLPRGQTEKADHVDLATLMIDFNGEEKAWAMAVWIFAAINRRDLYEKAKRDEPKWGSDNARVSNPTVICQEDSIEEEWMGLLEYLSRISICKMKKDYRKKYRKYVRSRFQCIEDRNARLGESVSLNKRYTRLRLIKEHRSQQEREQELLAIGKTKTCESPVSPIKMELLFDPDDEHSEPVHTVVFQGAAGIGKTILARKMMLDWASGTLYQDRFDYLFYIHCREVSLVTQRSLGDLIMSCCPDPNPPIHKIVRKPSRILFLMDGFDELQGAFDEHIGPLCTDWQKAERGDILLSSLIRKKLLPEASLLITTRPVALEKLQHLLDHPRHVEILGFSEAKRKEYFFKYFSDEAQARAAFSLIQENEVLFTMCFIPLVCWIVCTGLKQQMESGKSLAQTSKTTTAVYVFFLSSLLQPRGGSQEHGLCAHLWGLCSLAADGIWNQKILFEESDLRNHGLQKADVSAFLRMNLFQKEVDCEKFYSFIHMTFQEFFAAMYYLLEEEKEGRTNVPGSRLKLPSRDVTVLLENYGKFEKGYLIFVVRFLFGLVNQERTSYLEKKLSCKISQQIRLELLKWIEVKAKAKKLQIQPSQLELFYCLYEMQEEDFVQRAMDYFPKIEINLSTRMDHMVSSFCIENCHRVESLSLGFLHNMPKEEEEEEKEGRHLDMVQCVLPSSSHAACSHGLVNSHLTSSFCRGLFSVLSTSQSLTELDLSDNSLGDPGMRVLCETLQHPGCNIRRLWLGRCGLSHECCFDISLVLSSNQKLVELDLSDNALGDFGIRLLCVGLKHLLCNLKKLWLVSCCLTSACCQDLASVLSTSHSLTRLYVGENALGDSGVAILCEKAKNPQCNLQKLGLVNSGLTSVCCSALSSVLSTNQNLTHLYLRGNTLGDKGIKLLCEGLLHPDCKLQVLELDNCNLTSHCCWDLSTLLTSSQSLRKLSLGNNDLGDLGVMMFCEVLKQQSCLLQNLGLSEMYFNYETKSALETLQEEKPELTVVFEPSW

What is called Kd is the equilibrium constant for the complex coming apart. In the case of `COc1ccc(Cl)cc1Cn1cc(C(=O)N2CC(F)(F)C2)nn1`, the equilibrium dissociation constant (Kd) was determined as 980 nM. Then `COC(=O)c1ccc(-c2cn(Cc3cc(Cl)ccc3OC)nn2)nc1`, with 860 nM; and `COc1ccc(Cl)cc1Cn1cc(-c2ccc(C(=O)N3CCC3)cc2)nn1`, with 3000 nM.
